“And” between values parts separate entries of the source, which are not always exact repeats. Identical values can stand only once. The source made the active and inactive calls.
Columns and labels:
[1] = target: E3 ubiquitin-protein ligase Mdm2 (Homo sapiens, UniProt Q00987); assay: enhancers of MDM2-luciferase reporter signal, concentration-effect titration, project on inhibitors of MDM2 ubiquitin ligase, cellular assay, luminescent readout, 384-well plate format (AID 1394); type: functional;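 note: MDM2 E3 inhibitors raise luminescence so EC50 is for signal enhancement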
Chain of E3 ubiquitin-protein ligase Mdm2 (Q00987 whole entry): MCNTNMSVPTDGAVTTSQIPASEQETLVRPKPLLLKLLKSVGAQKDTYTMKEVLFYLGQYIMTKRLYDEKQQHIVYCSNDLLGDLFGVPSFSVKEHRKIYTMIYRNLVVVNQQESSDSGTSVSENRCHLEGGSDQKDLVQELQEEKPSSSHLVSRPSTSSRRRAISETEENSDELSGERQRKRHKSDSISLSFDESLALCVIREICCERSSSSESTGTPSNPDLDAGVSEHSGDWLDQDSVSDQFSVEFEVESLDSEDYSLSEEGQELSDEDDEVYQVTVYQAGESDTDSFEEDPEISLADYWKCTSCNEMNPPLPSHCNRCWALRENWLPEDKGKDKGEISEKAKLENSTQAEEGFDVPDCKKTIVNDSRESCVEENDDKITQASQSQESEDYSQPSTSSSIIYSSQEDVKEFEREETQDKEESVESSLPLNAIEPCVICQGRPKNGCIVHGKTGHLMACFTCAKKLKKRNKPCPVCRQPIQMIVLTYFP

Cytochrome P450 2C19 = Cytochrome P450 2C19 (Homo sapiens, UniProt P33261); assay: qHTS Assay for Inhibitors and Substrates of Cytochrome P450 2C19. [Related pubchem assays: 410 ]; type: ADME; settings: read-out: Potency
Chain of Cytochrome P450 2C19 (P33261 whole entry): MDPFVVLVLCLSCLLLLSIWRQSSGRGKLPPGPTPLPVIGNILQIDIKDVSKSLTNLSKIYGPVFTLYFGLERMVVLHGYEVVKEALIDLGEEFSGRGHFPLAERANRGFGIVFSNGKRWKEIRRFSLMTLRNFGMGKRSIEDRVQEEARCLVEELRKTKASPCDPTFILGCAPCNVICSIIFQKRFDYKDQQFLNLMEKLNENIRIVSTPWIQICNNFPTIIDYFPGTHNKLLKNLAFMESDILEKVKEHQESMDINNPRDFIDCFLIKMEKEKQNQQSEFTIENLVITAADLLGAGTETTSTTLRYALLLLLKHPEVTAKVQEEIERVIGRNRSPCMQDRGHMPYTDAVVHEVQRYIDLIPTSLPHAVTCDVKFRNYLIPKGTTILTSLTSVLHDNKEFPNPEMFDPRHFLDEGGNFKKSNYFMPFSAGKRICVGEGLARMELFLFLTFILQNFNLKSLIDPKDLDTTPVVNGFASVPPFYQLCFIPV

[2] = target: Bifunctional protein GlmU (Mycobacterium tuberculosis, UniProt P9WMN3); assay: Inhibitors of Mycobacterial Glucosamine-1-phosphate acetyl transferase (GlmU). Secondary screen.; parameters: species or system Mycobacterium tuberculosis H37Rv
Chain of Bifunctional protein GlmU (P9WMN3 whole entry): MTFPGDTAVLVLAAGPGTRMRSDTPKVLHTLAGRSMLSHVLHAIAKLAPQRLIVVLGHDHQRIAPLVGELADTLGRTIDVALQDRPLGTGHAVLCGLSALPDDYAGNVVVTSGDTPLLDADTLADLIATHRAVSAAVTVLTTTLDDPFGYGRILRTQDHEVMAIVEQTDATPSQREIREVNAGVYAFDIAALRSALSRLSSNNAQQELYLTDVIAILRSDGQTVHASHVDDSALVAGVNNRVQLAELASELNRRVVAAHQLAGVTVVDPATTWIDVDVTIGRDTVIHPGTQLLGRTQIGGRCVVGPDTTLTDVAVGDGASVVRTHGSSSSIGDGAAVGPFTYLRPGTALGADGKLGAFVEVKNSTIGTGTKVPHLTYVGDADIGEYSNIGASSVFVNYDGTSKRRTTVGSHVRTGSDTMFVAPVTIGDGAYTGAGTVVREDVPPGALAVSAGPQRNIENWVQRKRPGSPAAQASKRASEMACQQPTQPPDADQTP

[3] = target: T1, Long-chain-fatty-acid--AMP ligase FadD28 (Mycobacterium tuberculosis, UniProt P9WQ59); assay: Fluorescence polarization aasay to screen for inhibitors that compete for the binding of FadD28 to a bisubstrate Measured in Biochemical System Using Plate Reader - 2147-01_Inhibitor_Dose_CherryPick_Activity.; type: functional, Mycobacterium tuberculosis H37Rv
T1 sequence (P9WQ59 whole entry): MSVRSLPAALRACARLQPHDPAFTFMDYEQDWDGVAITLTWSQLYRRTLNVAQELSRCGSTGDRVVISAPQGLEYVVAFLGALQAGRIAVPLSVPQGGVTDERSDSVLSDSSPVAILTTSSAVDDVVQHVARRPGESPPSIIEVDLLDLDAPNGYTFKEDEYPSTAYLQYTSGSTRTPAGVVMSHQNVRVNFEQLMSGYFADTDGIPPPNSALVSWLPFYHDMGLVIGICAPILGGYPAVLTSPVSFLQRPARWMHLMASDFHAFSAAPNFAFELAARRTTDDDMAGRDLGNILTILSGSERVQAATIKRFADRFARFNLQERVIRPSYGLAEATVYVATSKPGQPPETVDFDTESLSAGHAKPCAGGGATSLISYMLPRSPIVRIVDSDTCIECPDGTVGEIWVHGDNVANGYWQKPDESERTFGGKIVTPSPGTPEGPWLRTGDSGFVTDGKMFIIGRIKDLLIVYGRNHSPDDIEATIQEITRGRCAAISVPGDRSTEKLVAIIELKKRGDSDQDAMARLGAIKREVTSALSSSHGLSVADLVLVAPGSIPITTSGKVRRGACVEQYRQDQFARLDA

Cytochrome P450 2D6 = Cytochrome P450 2D6 (Homo sapiens, UniProt P10635); assay: qHTS Assay for Inhibitors and Substrates of Cytochrome P450 2D6. [Related pubchem assays: 410 ]; type: ADME; settings: read-out: Potency
Chain of Cytochrome P450 2D6 (P10635 whole entry): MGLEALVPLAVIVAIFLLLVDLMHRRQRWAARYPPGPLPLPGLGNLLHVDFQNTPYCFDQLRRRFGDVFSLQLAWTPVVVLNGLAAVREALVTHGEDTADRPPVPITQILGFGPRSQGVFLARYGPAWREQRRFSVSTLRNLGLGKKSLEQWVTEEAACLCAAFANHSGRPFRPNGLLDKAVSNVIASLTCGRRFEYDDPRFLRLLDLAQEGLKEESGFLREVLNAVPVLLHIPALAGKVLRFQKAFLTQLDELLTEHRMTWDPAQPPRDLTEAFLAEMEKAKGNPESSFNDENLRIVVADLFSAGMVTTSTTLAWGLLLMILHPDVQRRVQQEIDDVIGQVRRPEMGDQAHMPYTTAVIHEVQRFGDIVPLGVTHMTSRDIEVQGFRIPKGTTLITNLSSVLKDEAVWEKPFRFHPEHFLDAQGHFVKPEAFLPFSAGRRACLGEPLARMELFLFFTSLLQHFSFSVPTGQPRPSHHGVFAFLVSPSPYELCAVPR

[4] = inhibitors of Bluetongue virus cytopathic effect, confirmation, arbovirus, BSR cells (AID 1250); type: functional;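 note: protection from viral cytopathic effect measured as cell viability by ATP luminescence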
Cytochrome P450 3A4 = Cytochrome P450 3A4 (Homo sapiens, UniProt P08684);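 note: CYP3A4 tested as one member of a cytochrome P450 panel screen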
Chain of Cytochrome P450 3A4 (P08684 whole entry): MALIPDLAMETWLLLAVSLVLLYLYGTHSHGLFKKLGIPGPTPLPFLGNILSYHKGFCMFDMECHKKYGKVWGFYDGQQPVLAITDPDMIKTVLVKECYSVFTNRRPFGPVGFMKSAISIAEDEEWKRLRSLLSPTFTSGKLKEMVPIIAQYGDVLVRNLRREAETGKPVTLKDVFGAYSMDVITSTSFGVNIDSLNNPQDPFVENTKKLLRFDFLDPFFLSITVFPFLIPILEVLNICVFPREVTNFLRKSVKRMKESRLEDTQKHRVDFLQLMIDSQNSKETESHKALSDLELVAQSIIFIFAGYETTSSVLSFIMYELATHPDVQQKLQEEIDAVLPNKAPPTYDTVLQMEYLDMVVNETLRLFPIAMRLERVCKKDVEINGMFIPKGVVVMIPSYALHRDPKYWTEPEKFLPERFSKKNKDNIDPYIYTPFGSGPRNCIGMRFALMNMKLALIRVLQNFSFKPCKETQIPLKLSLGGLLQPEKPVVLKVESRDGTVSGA

[5] = target: T2, Aryl hydrocarbon receptor (Homo sapiens, UniProt P35869); assay: Luminescence-based cell-based high throughput dose response assay for activators of the Aryl Hydrocarbon Receptor (AHR). [Related pubchem assays: 2796 (Primary screen (AHR activators in singlicate)), 2845 (Confirmation screen (AHR activators in triplicate)), 434939 (Counterscreen (PXR activators in triplicate)), 2804 (Summary (AHR activators))]; type: ADME
T2 sequence (P35869 whole entry): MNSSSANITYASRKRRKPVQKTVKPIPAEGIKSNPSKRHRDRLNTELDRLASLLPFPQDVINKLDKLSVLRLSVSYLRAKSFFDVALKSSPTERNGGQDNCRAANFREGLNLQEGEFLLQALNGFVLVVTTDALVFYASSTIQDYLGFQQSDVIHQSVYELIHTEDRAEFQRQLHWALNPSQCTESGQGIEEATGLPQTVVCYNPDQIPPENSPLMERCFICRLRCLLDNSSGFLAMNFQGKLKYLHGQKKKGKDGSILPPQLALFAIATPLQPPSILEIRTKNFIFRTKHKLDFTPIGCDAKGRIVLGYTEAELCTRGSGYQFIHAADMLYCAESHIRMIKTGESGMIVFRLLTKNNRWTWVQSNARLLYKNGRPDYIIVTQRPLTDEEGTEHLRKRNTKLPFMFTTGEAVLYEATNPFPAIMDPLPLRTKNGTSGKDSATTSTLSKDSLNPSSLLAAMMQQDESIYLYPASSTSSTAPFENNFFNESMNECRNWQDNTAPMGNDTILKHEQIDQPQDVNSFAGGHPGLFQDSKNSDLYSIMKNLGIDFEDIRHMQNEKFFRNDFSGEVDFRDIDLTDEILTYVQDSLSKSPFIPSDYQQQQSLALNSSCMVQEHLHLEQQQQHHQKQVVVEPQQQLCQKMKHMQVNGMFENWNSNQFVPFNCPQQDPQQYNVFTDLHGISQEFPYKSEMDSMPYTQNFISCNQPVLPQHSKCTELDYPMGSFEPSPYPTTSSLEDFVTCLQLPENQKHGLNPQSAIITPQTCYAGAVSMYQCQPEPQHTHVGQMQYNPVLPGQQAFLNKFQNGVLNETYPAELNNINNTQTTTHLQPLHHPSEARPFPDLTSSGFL

## CCOC(=O)C1C(c2ccccc2)N(C)OC1(O)C(F)(F)F (stereo not given)
[1]
  EC50: 9.58 µM (not active)

## CC1C=CCCOC1c1ccccc1 (stereo not given)
Cytochrome P450 2C19
  AC50: 3.98 µM (inconclusive)

## Cc1cc(N)n(-c2ccc(Oc3ccccc3)c(S(=O)(=O)O)c2)n1
[2]
  IC50: 123 µM (active)
[3]
  AC50: > 100 µM (inactive)

## CCCCC1CN2C(CCC(C)C2c2ccc(Br)cc2)C(=O)O1 (stereo not given)
Cytochrome P450 2C19
  AC50: 3.16 µM (inconclusive) and 7.94 µM (inconclusive)
Cytochrome P450 2D6; human
  AC50: 3.16 µM (inconclusive)
Cytochrome P450 2D6
  AC50: 3.16 µM (inconclusive)

## C=CCSc1nc(O)c2sc3nc(C)cc(C)c3c2n1
[4]
  IC50: 25.4 µM (active)
Cytochrome P450 3A4
  AC50: 11.2 µM (inconclusive)

## Cc1nnc(N2C(=O)c3cccc4c([N+](=O)[O-])ccc(c34)C2=O)s1
[5]
  EC50: 0.733 µM (active)
